Reference: patent publication US8445428B2, “Plant derived antibiotic peptide rich in glycine” (Uniao Brasiliense de Educacao e Cultura—UBEC, priority 2006, dated 2013)

Assays:
Format in all cases: cell-based
Klebsiella sp. = experiment: Bioassay against bacteria: growth in LB medium, absorbance at 600 nm; settings: micromolar concentrations, 37° C. for 4 hours
Procedure: (§1) The bioassays against bacteria were performed using 1.0 ml of Luria Bertani medium (NaCl 10 g.l^−1, yeast extract 5 g.l^−1 and bactopeptone […]). Two species, namely Klebsiella sp. and Proteus sp., were used, with the protein under test was restricted to micromolar concentrations. The bacteria grew in the LB medium during 16-18 hours at 37° C. before being evaluated with the proteins. Distilled water was used as negative control and chloramphenicol 40 μg.ml^−1 as positive control. Protein from guava seeds was incubated against the bacteria at 37° C. for 4 hours. Bacterial growth was assessed by an absorbance reading at 600 nm at each hour of the experiment. Each experiment was performed in triplicate.

Proteus sp. = experiment: as above; settings: micromolar concentrations, 37° C. for 4 hours
Procedure: as §1

Staphylococcus aureus = experiment: Preliminary bioassays against gram-positive bacteria; settings: such as Staphylococcus aureus

In the case of “RESPSSRMECYEQAERYGYGGYGGGRYGGGYGSGRGQPVGQGVERSHDDNRNQPR (SEQ ID NO: 1) (RESPSSRMECYEQAERYGYGGYGGGRYGGGYGSGRGQPVGQGVERSHDDNRNQPR; listed as Psidium guajava) [Pg-AMP1, glycine rich anti-microbial peptide of 55 amino acids, about 5 kDa, purified from guava (Psidium guajava) seeds]”, the inhibitory activity (Klebsiella sp.) is reported as 90%, the inhibitory activity (Proteus sp.) is reported as 30% and the inhibitory activity (Staphylococcus aureus) is reported as “did not reveal any inhibitory activity”.
